The values below come from patent publication US9382197B2, “Substituted hydroxamic acids and uses thereof” (Millennium Pharmaceuticals, Inc., priority 2010, dated 2016).

Each structure is given as a SMILES string.

One assay deals with T1, purified human HDAC6 (Homo sapiens, UniProt Q9UBN7).
T1 construct: purchased BPS Bioscience 5006
T1 sequence (Q9UBN7 1-1215): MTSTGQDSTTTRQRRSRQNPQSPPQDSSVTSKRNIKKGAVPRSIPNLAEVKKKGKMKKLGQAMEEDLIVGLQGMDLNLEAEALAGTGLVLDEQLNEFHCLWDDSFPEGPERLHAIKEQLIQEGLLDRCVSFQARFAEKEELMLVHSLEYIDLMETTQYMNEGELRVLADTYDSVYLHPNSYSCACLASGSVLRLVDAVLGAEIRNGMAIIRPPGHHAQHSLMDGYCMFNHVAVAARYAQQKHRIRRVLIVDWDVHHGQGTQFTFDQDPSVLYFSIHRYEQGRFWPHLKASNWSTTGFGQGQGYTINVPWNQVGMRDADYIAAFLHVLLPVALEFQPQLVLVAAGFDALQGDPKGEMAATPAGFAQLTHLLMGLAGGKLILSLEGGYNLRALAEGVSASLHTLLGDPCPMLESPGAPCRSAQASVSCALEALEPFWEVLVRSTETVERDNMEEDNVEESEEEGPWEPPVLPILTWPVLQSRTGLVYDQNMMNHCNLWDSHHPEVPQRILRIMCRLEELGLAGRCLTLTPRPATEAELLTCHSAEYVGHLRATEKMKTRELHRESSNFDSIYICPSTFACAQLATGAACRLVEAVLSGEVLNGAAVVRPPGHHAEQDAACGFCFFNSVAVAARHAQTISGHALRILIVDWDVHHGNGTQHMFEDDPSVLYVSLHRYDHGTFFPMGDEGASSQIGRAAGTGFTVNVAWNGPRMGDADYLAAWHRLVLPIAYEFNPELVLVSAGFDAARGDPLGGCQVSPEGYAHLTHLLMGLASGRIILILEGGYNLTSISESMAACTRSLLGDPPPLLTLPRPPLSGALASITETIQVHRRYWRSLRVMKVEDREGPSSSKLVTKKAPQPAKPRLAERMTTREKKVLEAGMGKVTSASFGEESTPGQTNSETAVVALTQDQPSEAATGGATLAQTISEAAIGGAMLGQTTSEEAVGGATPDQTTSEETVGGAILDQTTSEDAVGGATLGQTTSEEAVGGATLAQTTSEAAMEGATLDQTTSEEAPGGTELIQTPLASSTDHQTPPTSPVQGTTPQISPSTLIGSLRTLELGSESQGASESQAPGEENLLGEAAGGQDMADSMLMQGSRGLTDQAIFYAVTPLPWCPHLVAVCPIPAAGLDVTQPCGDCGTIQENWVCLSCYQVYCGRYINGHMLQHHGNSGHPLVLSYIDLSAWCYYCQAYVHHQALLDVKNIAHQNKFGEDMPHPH
Kind of assay: HDAC6 Enzyme Assay. The class given is biochemical. To be noted: bin: greater than 500 nM and less than 1 μM (lower bound in nM, upper bound in μM). Put shortly: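 Deacetylated product quantified after trypsin digestion as released AMC (340/460 nm), following a 1 h, 30 °C reaction of human HDAC6 with Ac-RGK(Ac)-AMC peptide, quenched by trichostatin A. IC50 derived from DMSO-normalized curves.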
For the compound `CC(NC(=O)c1cc(F)cc(F)c1)c1cccc(C(=O)NO)c1` (stereo not shown) [Compound I-137, 3,5-difluoro-N-(1-{3-[(hydroxyamino)carbonyl]phenyl}ethyl)benzamide], the IC50 is 500 to 1000 nM.

The same assay, now with this note: bin: greater than 1 μM.
`CCC[C@@H](NS(=O)(=O)c1ccc(C(F)(F)F)cc1)c1ccc(C(=O)NO)cc1` [Compound I-171, N-hydroxy-4-[(1R)-1-({[4-(trifluoromethyl)phenyl]sulfonyl}amino)butyl]benzamide]: the 50% inhibitory concentration (IC50) is over 1000 nM.

In the case of `Cc1noc(C)c1C(=O)NC(C)c1ccc(C(=O)NO)cc1` (stereo not shown) [Compound I-326, N-(1-{4-[(hydroxyamino)carbonyl]phenyl}ethyl)-3,5-dimethylisoxazole-4-carboxamide], the IC50 is over 1000 nM. Still for that read-out and setting: in the case of `Cn1c(C(=O)NC(c2ccc(C(=O)NO)cc2)C(C)(C)C)cc(Cl)c1Cl` (stereo not shown) [Compound I-386, 4,5-dichloro-N-(1-{4-[(hydroxyamino)carbonyl]phenyl}-2,2-dimethylpropyl)-1-methyl-1H-pyrrole-2-carboxamide] it was over 1000 nM. `Cn1c(C(=O)N[C@@H](c2ccc(C(=O)NO)cc2)C(F)(F)F)cc2oc(-c3ccccc3)cc21` [Compound I-231, 4-methyl-2-phenyl-N-((1S)-2,2,2-trifluoro-1-{4-[(hydroxyamino)carbonyl]phenyl}ethyl)-4H-furo[3,2-b]pyrrole-5-carboxamide] showed an IC50 of over 1000 nM. Regarding `Cc1noc(C)c1C(=O)NC(C)c1cccc(C(=O)NO)c1` (stereo not shown) [Compound I-218, N-(1-{3-[(hydroxyamino)carbonyl]phenyl}ethyl)-3,5-dimethylisoxazole-4-carboxamide], the IC50 was over 1000 nM.

The assay is the same for the next values; noted with them: purified human HDAC6, substrate Ac-Arg-Gly-Lys(Ac)-AMC, 1 hour at 30° C.; reported as bins.
With `CC(NC(=O)C1(c2ccccc2)CCCC1)c1ccc(C(=O)NO)cc1` (stereo not shown) [Compound I-298, N-hydroxy-4-(1-{[(1-phenylcyclopentyl)carbonyl]amino}ethyl)benzamide], the IC50 was 100 to 500 nM. On the same count and under the same terms, in the case of `CC(C)C(NC(=O)c1cc2ccccc2s1)c1ccc(C(=O)NO)cc1` (stereo not shown) [Compound I-94, N-(1-{4-[(hydroxyamino)carbonyl]phenyl}-2-methylpropyl)-1-benzothiophene-2-carboxamide] it was under 100 nM; in that of `CC(NC(=O)c1ccc(C(C)(C)C)cc1)c1ccc(C(=O)NO)cc1` (stereo not shown) [Compound I-350, 4-tert-butyl-N-(1-{4-[(hydroxyamino)carbonyl]phenyl}ethyl)benzamide], under 100 nM; in that of `CC(C)[C@@H](NC(=O)C1(C)CCCCC1)c1ccc(C(=O)NO)cc1` [Compound I-126, N-hydroxy-4-((1R)-2-methyl-1-{[(1-methylcyclohexyl)carbonyl]amino}propyl)benzamide], 100 to 500 nM. Compound `CC(C)[C@@H](NC(=O)c1cc2ccccc2[nH]1)c1ccc(C(=O)NO)cc1` [Compound I-68, N-((1R)-1-{4-[(hydroxyamino)carbonyl]phenyl}-2-methylpropyl)-1H-indole-2-carboxamide] came in with an IC50 of under 100 nM. As for `CC(C)[C@@H](NC(=O)c1cc2oc(-c3ccccc3)cc2n1C)c1ccc(C(=O)NO)cc1` [Compound I-332, N-((1R)-1-{4-[(hydroxyamino)carbonyl]phenyl}-2-methylpropyl)-4-methyl-2-phenyl-4H-furo[3,2-b]pyrrole-5-carboxamide], the IC50 is under 100 nM. In turn, `CC(=O)Nc1cc(NC(C)=O)cc(C(=O)NC(c2ccc(C(=O)NO)cc2)C(C)C)c1` (stereo not shown) [Compound I-282, 3,5-bis(acetylamino)-N-(1-{4-[(hydroxyamino)carbonyl]phenyl}-2-methylpropyl)benzamide] registered an IC50 of under 100 nM. On the same count and under the same terms, in the case of `CC(C)C(NC(=O)c1ccc(-c2ccccc2)cc1)c1ccc(C(=O)NO)cc1` (stereo not shown) [Compound I-11, N-(1-{4-[(hydroxyamino)carbonyl]phenyl}-2-methylpropyl)biphenyl-4-carboxamide] it was under 100 nM. In the case of `CC(C)C(NC(=O)Cc1csc2ccc(Cl)cc12)c1ccc(C(=O)NO)cc1` (stereo not shown) [Compound I-206, 4-(1-{[(5-chloro-1-benzothien-3-yl)acetyl]amino}-2-methylpropyl)-N-hydroxybenzamide], the IC50 was 100 to 500 nM. As to `C[C@@H](NC(=O)Nc1cccc2ccccc12)c1ccc(C(=O)NO)cc1` [Compound I-527, N-hydroxy-4-((1R)-1-{[(1-naphthylamino)carbonyl]amino}ethyl)benzamide], the IC50 is under 100 nM.

`CC(C)C(NC(=O)C1(c2ccc(Cl)cc2)CC1)c1ccc(C(=O)NO)cc1` (stereo not shown) [Compound I-300, 4-[1-({[1-(4-chlorophenyl)cyclopropyl]carbonyl}amino)-2-methylpropyl]-N-hydroxybenzamide] returned an IC50 of 100 to 500 nM. Turning to `CC(NC(=O)c1sccc1-n1cccc1)c1ccc(C(=O)NO)cc1` (stereo not shown) [Compound I-228, N-(1-{4-[(hydroxyamino)carbonyl]phenyl}ethyl)-3-(1H-pyrrol-1-yl)thiophene-2-carboxamide], the IC50 is under 100 nM. For the compound `CCC[C@@H](NC(=O)c1cc2ccccc2s1)c1ccc(C(=O)NO)cc1` [Compound I-299, N-((1R)-1-{4-[(hydroxyamino)carbonyl]phenyl}butyl)-1-benzothiophene-2-carboxamide], the IC50 was under 100 nM. Same read-out and setting: the same measure for `CC(C)C(NC(=O)c1cnc2ccccc2n1)c1ccc(C(=O)NO)cc1` (stereo not shown) [Compound I-190, N-(1-{4-[(hydroxyamino)carbonyl]phenyl}-2-methylpropyl)quinoxaline-2-carboxamide]: under 100 nM. On to `C[C@@H](NC(=O)c1cc(Cl)c(Cl)n1C)c1cccc(C(=O)NO)c1` [Compound I-301, 4,5-dichloro-N-((1R)-1-{3-[(hydroxyamino)carbonyl]phenyl}ethyl)-1-methyl-1H-pyrrole-2-carboxamide], for which the IC50 lay within 100 to 500 nM. As to `CC(NC(=O)C1C(C)(C)C1(C)C)c1ccc(C(=O)NO)cc1` (stereo not shown) [Compound I-372, N-hydroxy-4-(1-{[(2,2,3,3-tetramethylcyclopropyl)carbonyl]amino}ethyl)benzamide], the IC50 is 100 to 500 nM.

`CC(NC(=O)c1cc2ccccc2s1)c1cccc(C(=O)NO)c1` (stereo not shown) [Compound I-97, N-(1-{3-[(hydroxyamino)carbonyl]phenyl}ethyl)-1-benzothiophene-2-carboxamide] had a concentration for half-maximal inhibition (IC50) of 100 to 500 nM. The same measure, in the same setting: in the case of `O=C(NO)c1ccc([C@H](NC(=O)c2cc3ccccc3s2)C2CC2)cc1` [Compound I-229, N-((R)-cyclopropyl{4-[(hydroxyamino)carbonyl]phenyl}methyl)-1-benzothiophene-2-carboxamide] it was under 100 nM. For `CC(C)[C@@H](NC(=O)c1cc2ccccc2n1C)c1ccc(C(=O)NO)cc1` [Compound I-242, N-((1R)-1-{4-[(hydroxyamino)carbonyl]phenyl}-2-methylpropyl)-1-methyl-1H-indole-2-carboxamide], the IC50 was under 100 nM. Consider `CC(C)Oc1ccc(C(=O)NC(C)c2ccc(C(=O)NO)cc2)cc1` (stereo not shown) [Compound I-38, N-(1-{4-[(hydroxyamino)carbonyl]phenyl}ethyl)-4-isopropoxybenzamide], for which the IC50 was under 100 nM. With `CC(C)(C)C(NC(=O)c1cc2ccccc2[nH]1)c1ccc(C(=O)NO)cc1` (stereo not shown) [Compound I-127, N-(1-{4-[(hydroxyamino)carbonyl]phenyl}-2,2-dimethylpropyl)-1H-indole-2-carboxamide], the IC50 was under 100 nM. Still for that read-out and setting: the same measure for `CC(NC(=O)Nc1ccc(C#N)cc1)c1ccc(C(=O)NO)cc1` (stereo not shown) [Compound I-236, 4-[1-({[(4-cyanophenyl)amino]carbonyl}amino)ethyl]-N-hydroxybenzamide]: under 100 nM.
